Test results reported in US7312302B2, “Compositions for the detection of enzyme activity in biological samples and methods of use thereof” (Oncolmmunin, Inc., priority 1997, dated 2007).
Non-standard residues stand in square brackets, D forms with d. Primed or numbered codes have the meaning given here. No end group written: not given here. *: point of attachment. F1 = 5-carboxytetramethylrhodamine (donor fluorophore); F1(3) = carboxytetramethylrhodamine; Fmoc = O=C(OCC1c2ccccc2-c2ccccc21)*; code B = not defined here; code J = not defined here; Cbz = O=C(OCc1ccccc1)*; F1″ = not defined here; C5 = not defined here

system: DEVDase activity (caspase 3/7); assay: DEVDase activity in apoptotic thymocyte extract using PhiPhiLux substrate, with protease inhibitors; assay type: biochemical, mouse; conditions: apoptotic thymocyte extract, FIG. 5
Experimental: FIG. 5 illustrates the inhibition of DEVDase activity in apoptotic thymocyte extract using PhiPhiLux™ substrate. An extract of mouse thymocytes exposed to 0.1 mM dexamethasone for 6 h was incubated in fluorometer cuvettes at 37° C. with 10 mM PhiPhiLux™ substrate with or without the indicated protease inhibitors. Enzymatic activity was calculated from the rate of increase of fluorescence.
Single cell suspensions of thymocytes were cultured in RPMI 1640 with 10% FCS at a concentration of 10 6 cells/ml. Dexamethasone (final concentration, 0.1 mM) and ZVAD (OMe)FMK (final concentration, 50 mM) were added at the indicated times from stock solutions in DMSO (100 mM for dexamethasone and 200 mM for ZVAD[OMe]FMK). For antiFas stimulation, wells in a 24 well plate were coated with antiFas antibody (20 mg/ml; […] per well) overnight at 378 C. After twice washing the wells with medium containing 10% FCS, 4 3 10 6 thymocytes were added per well. After culture at 378 C in a 5% CO2 atmosphere for the indicated times, cells were centrifuged and resuspended in 75 ml of each substrate (10 mM) in 1.5 ml Eppendorf tubes. The open tubes were placed in the CO2 incubator for an additional 60 min. After washing in saline, cells were analyzed by flow cytometry. Caspase activity measurements in extracts with several known inhibitors and noninhibitors were carried out using fluorometers from Photon Technology International and SLMAMINCO. Cell lysates were prepared using a cell lysate buffer consisting of 50 mM Hepes, pH 7.5, 10% (wt/vol) sucrose, 0.1% (wt/vol) CHAPS, 0.5% (wt/vol) Triton X100, and 10 mM DTT. The substrate (10 mM) was prepared in 50 mM Hepes, pH 7.5, with 10 mM DTT. All measurements were made at 378 C using a thermostated cell holder in a 150 ml quartz cuvette (3 3 3. 45 mm; Starna Cells, Inc.). The temperature of the substrate solution was preequilibrated for 20 min, ensuring temperature equilibration by having a flat base line before cell lysate addition. A 10 ml aliquot from an apoptotic thymocyte lysate was added to 110 ml of substrate solution. The fluorescence intensity was then monitored for 30-60 min. The initial velocity was calculated from the linear portion of the fluorescence increase. Various amounts of inhibitors were added to the cell lysate for 20 min before addition of the cell lysate mixture to the substrate solution.
The caspase substrates used in these studies were based on optimal peptide recognition motifs for various caspases as reported by peptide library studies (2) and are described in Table I. To assess whether cleavage of these substrates in apoptotic thymocytes was due to caspases, we examined extracts from untreated fresh thymocytes, or from thymocytes treated with dexamethasone.

Row | Molecule | inhibition of apoptotic DEVDase activity
1 | CC(C)C[C@H](NC(=O)[C@H]1O[C@@H]1C(=O)O)C(=O)NCCCCN=C(N)N [Compound E64] | lack of inhibition
2 | CC(=O)N[C@@H](CC(=O)O)C(=O)N[C@@H](CCC(=O)O)C(=O)N[C@H](C(=O)N[C@H](C=O)CC(=O)O)C(C)C [DEVDCHO] | complete inhibition
3 | NC(=O)CI [iodoacetamide] | inhibition
4 | CC(=O)N[C@@H](CC(C)C)C(=O)N[C@@H](CC(C)C)C(=O)N[C@H](C=O)CCCNC(=N)N [leupeptin] | lack of inhibition

same assay, conditions: on a cell basis

Row | cleavage by apoptotic thymocyte extracts relative to fresh thymocyte extracts [fold] | Molecule
5 | 25 | KDPC5GDEVDGIDGC5PKGY (KDP[C5]GDEVDGIDG[C5]PKGY; reading uncertain; also: printed as KDPC5GDEVDGIDGC5PKGY) [PhiPhiLux, cell-permeable fluorogenic caspase 3/7 substrate from OncoImmunin, Inc]

system: not given; assay: not given; conditions: doubly labeled NorFes, Packard et al. 1998; cited from earlier work

Row | Molecule | free energy of activation of disruption of homodimers
6 | CN(C)c1ccc2c(-c3ccccc3C(=O)[O-])c3ccc(N(C)C)cc3[o+]c2c1 [tetramethylrhodamine] | at least 1.7 kcal/mole
7 | diethylrhodamine | 2.4 kcal/mol

same assay, conditions: free dye in solution; cited from earlier work

Row | Molecule | concentration above which ground-state dimerization of free dye in solution was observed
8 | O=C1OC2(c3ccccc31)c1cc(Br)c(O)c(Br)c1Oc1c2cc(Br)c(O)c1Br [Eosin] | higher than 2.8×10^−2 M
9 | CCN(CC)c1ccc2c(-c3ccccc3C(=O)O)c3ccc(=[N+](CC)CC)cc-3oc2c1.[Cl-] [Rhodamine B] | higher than 6×10^−4 M

system: not listed separately; assay: Ground-state (H-type) dimer formation by absorption spectroscopy; assay type: physicochemical; conditions: homodoubly-labeled peptides
Source text: This was indicated by shift of absorption maxima to shorter wavelengths as well as a shape change of the absorption spectra as compared with the spectra for the enzyme digested doubly-labeled samples. Upon cleavage with elastase, the ground-state dimers were destroyed and the resulting spectra were the same as a solution containing equal concentrations of the respective singly labeled peptides.
For example, NorFes, an undecapeptide which is cleaved by the serine protease elastase, was homodoubly labeled on opposite sides of its cleavage site with six fluorophores in order to identify structural elements of dyes which influence intramolecular H-type dimer formation.

Row | Molecule | dye-dye (ground-state, H-type) dimer formation / spectral change
10 | c1cc2ccc3cccc4ccc(c1)c2c34 [pyrene] | No spectral changes were observed
11 | F1-DEVDGIDPK[F1]GY ({F1(3)}-DEVDGIDPK(F1(3))GY) | did not allow the formation of productive H-type dimers
12 | F1-PDEVDGIDPK[F1]GY ({F1(3)}-PDEVDGIDPK(F1(3))GY) | did not allow the formation of productive H-type dimers

target: T1, CPP32 protease (Homo sapiens, UniProt P42574); assay: Cell lysate hydrolysis of DEVD-AFC, competitive substrate inhibition (anti-Fas-stimulated Jurkat cell lysate); assay type: biochemical; conditions: concentration raised to 25 μM; 50 μM DEVD-AFC, 37° C.
T1 construct: served as a direct measure of the intracellular CPP32 protease activity; endogenous in cells
T1 sequence (P42574 29-277): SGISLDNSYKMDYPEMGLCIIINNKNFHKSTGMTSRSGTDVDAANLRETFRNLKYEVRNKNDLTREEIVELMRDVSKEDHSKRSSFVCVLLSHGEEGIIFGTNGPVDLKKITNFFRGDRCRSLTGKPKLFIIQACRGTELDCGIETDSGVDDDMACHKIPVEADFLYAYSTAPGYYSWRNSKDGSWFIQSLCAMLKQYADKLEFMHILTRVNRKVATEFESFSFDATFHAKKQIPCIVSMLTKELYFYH
Experimental: The level of CPP32 protease activity in the 6 hr ant-Fas-stimulated Jurkat cell lysate was examined using the protease substrate, DEVD-AFC (where AFC is aminofluoromethyl coumarin) 50 μM substrate concentration at 37° C. The buffer used was 50 mM HEPES, pH7.5, 10% w/v sucrose, 0.1% w/v CHAPS.) Fluorescence intensity changes were monitored with an SLM 48000 spectrofluorometer. […] As the concentrations of DEVD, DEVN, and ICE were raised to 25 μM, the rate of DEVD-AFC hydrolysis was decreased.

Row | rate of DEVD-AFC hydrolysis in presence of substrate | Molecule
13 | decreased | K[F1]DBDEVDGIDPK[F1]GY (K(F1″)D[code B]DEVDGIDPK(F1″)GY; reading uncertain; also: printed as K[F1]DBDEVDGIDPK[F1]GY) [Compound 5]
14 | decreased | K[F1]DBDEVNGIDPK[F1]GY (K(F1″)D[code B]DEVNGIDPK(F1″)GY; reading uncertain; also: printed as K[F1]DBDEVNGIDPK[F1]GY) [Compound 7]
15 | decreased | K[F1]DYBADGIDPK[F1]GY (K(F1″)DY[code B]ADGIDPK(F1″)GY; reading uncertain; also: printed as K[F1]DYBADGIDPK[F1]GY) [Compound 9]

system: Jurkat cells, HL-60 cells, human lymphocyte lines, A1.1 cells, murine primary thymocytes; assay: Cellular uptake of substrates by fluorescence microscopy, flow cytometry, HPLC; assay type: cell-based; conditions: viable cells
Experimental: The compounds listed in Table 6 were synthesized and assayed for cellular uptake. Cellular internalization of the substrates was tested using Jurkat cells (a human acute T cell leukemic line), HL-60 cells (a human promyelocytic leukemic line), human lymphocyte lines, A1.1 cells (a murine T-cell line), and murine primary thymocytes. Procedures used in determining substrate uptake by viable cells are provided in Example 6 (for the HPLC procedures), in Example 2 (for the fluorescence microscopic analysis), and in Example 3 (for the flow cytometric analysis) a summary of these analyses with respect to cellular uptake of substrates is presented in this example.
The elastase substrate, Fm—K[F1]DAIPNluSIPK[F1]GY (SEQ ID NO:185), (where F1 was carboxytetramethylrhodamine, Fm was Fmoc, K[F1] was F1 covalently attached through the epsilon amino group of lysine (K), and Fm—K is the Fmoc group covalently attached at the alpha amino group of the amino terminal lysine residue) was used with HL-60 cells. Cells were incubated with various concentrations of elastase substrate ranging from 10 nM to 10 μM for 5 minutes to 60 minutes. Then the cells were diluted 5-fold with RPMI 1640 medium containing 5% serum or with phosphate buffered saline. The samples were centrifuged and washed once more with 1 ml of washing solution. After centrifugation and removal of the washing solution, cell pellets were loosened with about 25 ul of medium and these cells were transferred to a glass capillary. Capillary tubes were then placed on a glass microscope slide and examined under a fluorescence microscope using standard rhodamine filters.
For apoptosis-related protease activity determination, 10 μM concentration of the compounds listed in Example 8 (compound structures 2 through 13) were incubated with cells for 30 min. to 3 hours. The cells were then washed similarly twice. Using glass capillary tubes, the washed cells were transferred and examined under a fluorescence microscope.
The concentration of substrates used in flow cytometric analysis was 10 M in RPMI1640 medium containing 4 to 10% fetal calf serum. Cell densities during incubation with the chosen substrates ranged from 50,000 cells per ml to 4,000,000 per ml. Incubation times were from 30 min. to 3 hours at 37° C. and incubation volumes were 50 μL to 2 ml. After incubation with substrate for 30 to 60 min. cell suspensions were diluted 10-fold with ice cold Hank's Buffered Saline Solution (HBSS). This filtered cell suspension was then subjected to flow cytometric analysis using a 488 nm excitation source. Becton Dickenson, Inc.'s flow cytometer, FacSort, was used in the flow cytometric analysis. Typically, 10,000 to 30,000 events per sample were collected.

Row | Molecule | cellular uptake (Table 6)
16 | Fm-DAIPNluSIPK[F1]GY [Compound 3] | does not result in significant cellular uptake
17 | Fm-K[F1]DAIPNluSIPK[F1]GY [Compound 1] | efficient cellular uptake
18 | Fm-K[F1]DBDEVDGIDPK[F1]GY (Fmoc-K(F1″)D[code B]DEVDGIDPK(F1″)GY; reading uncertain; also: printed as Fm-K[F1]DBDEVDGIDPK[F1]GY) [Compound 4] | efficient cellular uptake
19 | Fm-K[F1]DBDEVNGIDPK[F1]GY (Fmoc-K(F1″)D[code B]DEVNGIDPK(F1″)GY; reading uncertain; also: printed as Fm-K[F1]DBDEVNGIDPK[F1]GY) [Compound 6] | efficient cellular uptake
20 | Fm-K[F1]DBEVDGIDPK[F1]GY (Fmoc-K(F1″)D[code B]EVDGIDPK(F1″)GY; reading uncertain; also: printed as Fm-K[F1]DBEVDGIDPK[F1]GY) [Compound 8] | efficient cellular uptake
21 | Fm-K[F1]DBGDEVDGIDGPK[F1]GY (K(F1)D[code B]GDEVDGIDGPK(F1)GY; not fully specified (N-terminus); printed as Fm-K[F1]DBGDEVDGIDGPK[F1]GY; reading uncertain) [Compound 10] | efficient cellular uptake
22 | K[F1]DAIPNluSIPK[F1]GY [Compound 2] | not optimum for cellular uptake
23 | K[F1]DBDEVDGIDPK[F1]GY (K(F1″)D[code B]DEVDGIDPK(F1″)GY; reading uncertain; also: printed as K[F1]DBDEVDGIDPK[F1]GY) [Compound 5] | not optimum for cellular uptake
24 | K[F1]DBDEVNGIDPK[F1]GY (K(F1″)D[code B]DEVNGIDPK(F1″)GY; reading uncertain; also: printed as K[F1]DBDEVNGIDPK[F1]GY) [Compound 7] | not optimum for cellular uptake
25 | K[F1]DYBADGIDPK[F1]GY (K(F1″)DY[code B]ADGIDPK(F1″)GY; reading uncertain; also: printed as K[F1]DYBADGIDPK[F1]GY) [Compound 9] | not optimum for cellular uptake
26 | Z-K[F1]DBJGDEVDGIDGJPK[F1]GY (Cbz-K(F1″)D[code B][code J]GDEVDGIDG[code J]PK(F1″)GY; reading uncertain; also: printed as Z-K[F1]DBJGDEVDGIDGJPK[F1]GY) [Compound 12] | efficient cellular uptake
